{"source": "paper PMC5554537", "about": "(Frontiers in Pharmacology, 2017)", "key": {"[1]": {"assay": "Mouse toxicity: MTD, survival and body weight loss after single i.p. doses", "assay_type": "in vivo, NIH-III mice", "settings": "mouse, in vivo, ip, NIH-III mice; for MTD at 14 days: both sexes, single i.p. dose", "source_text": "(§1) Mouse toxicity SN30000 and metabolites M14 and M18: survival and body weight loss following single i.p. doses to NIH-III mice.\n(§2) Cmpd Dose Body weight nadir Body weight nadir\n(§3) (µmol/kg) Survivala Survivala\n(§4) Day Weight loss (%)b Day Weight loss (%)b […]\n(§5) a Survival reported as a fraction of total nu mber of animal treated at a giv en dose, with an observation time of 14 days. Deaths were predominantly due to humane ter mination because of persistent clinical signs or body weight loss > 15% of pretreatment values. b Body weig ht loss at nadir, relative to pre-treatment values. Values are mean and errors are […]\n(§6) c Data from Gu et al., 2014 d Mouse died <24 hr after dosing."}, "NIH-III mice [2]": {"system": "NIH-III mice", "assay": "Mouse toxicity: MTD, survival and body weight loss after single i.p. doses", "assay_type": "in vivo", "settings": "for Survival: 14 days", "source_text": "as §1, §2, §3, §4, §5, §6"}, "SiHa cells": {"system": "SiHa cells", "assay": "Oxygen consumption rate, Seahorse XFe96 analyser", "assay_type": "cell-based, human", "settings": "200 µM, mitochondrial stress test", "protocol": "(OCR) of the human cervical carcinoma cell line SiHa and a previously described (Guise et al., 2007) POR-overexpressing transfectant SiHa/POR, determined using a Seahorse XFe96 Analyser (Agilent). Cells were passaged in αMEM plus 5% FCS, with 1 µM puromycin to maintain POR expression in the SiHa/POR cell line. Cells were ty pically seeded at 4×10^4 cells/well in Seahorse 96 well plates (without puromycin) and ~ 18 hr later the medium was changed to Seahorse medium with 10 mM glucose and 2 mM glutamine (SMGG) adjusted to pH 7.35 (150 µl/well). Plates were degassed to remove CO2, and inhibitors were added serially using the Seahorse injectors (25 µl/injection) with rotenone (final concentration 0.5 µM) typically added at the start of the 30 min equilibration in the flux analyser. OCR was monitored for three 3 min periods following each drug addition. […]\ninjection 1 and at each subsequent injection to maintain concentrations at 200 µM continuously during the test. The control received equivalent injections of SMGG without drugs. In all cases (including controls), injection 2 added oligomycin to give 0.5 µM, injection 3 added carbonyl cyanide […] (FCCP) to 0.5 µM, and injection 4 added rotenone and antimy cin to 1 µM each. V alues are means and errors are standard deviations, for 6 replicate cultures. […]\nsuppressed by M14, both in the presence (injection 1) and absence (injection 4) of respiratory […]\npresence or absence of 0.5 µM rotenone when SN30000 is added cumulatively to give the indicated concentrations. Values are means and SEM for 5 replicate cultures. The fall in OCR after transient stimulation at each addition of SN30000 is consistent with the pattern for CHO/POR cells in Supplementary Fig. 4A.\nC: Concentration dependence of increases in OCR by SiHa/POR cells, measured at the first […]\neffects noted above. Left panel: SN30000. Right panel: TPZ. Values are means and errors are […]"}, "[3]": {"assay": "Rectal temperature and MTD in rats", "assay_type": "in vivo", "settings": "rat, in vivo, iv; Wistar rats, single i.v. dose"}, "Urinary excretion": {"assay": "Urinary excretion", "assay_type": "in vivo, NIH-III mice", "settings": "for Urinary excretion, % of administered dose: 24 h", "experimental": "Mice (20–25 g body weight) were dosed i.p. or by slow bolus (10–20 s) i.v. injection via a lateral tail vein, with co-administration of ^3H-mannitol (0.025 μmol/kg; 67 MBq/g) in some studies as a marker of renal function. For evaluation of acute toxicity, mice were observed continuously for 3 h after dosing, and their activity rated on a lethargy score from 0 representing no change in activity to 5 representing animals that were moribund and required culling. For MTD studies, the animals were checked daily for clinical signs of toxicity and body weight change for 2 weeks. In some studies rectal temperature changes after dosing were measured using a BAT-12 digital microprobe thermometer (Physitemp Instruments, Clifton, NJ, United States) at the times specified in the figures. Blood samples were collected from mice at various times by cardiac puncture, seconds after cervical dislocation, into ice-cold tubes containing K2EDTA. These were placed on ice immediately after collection and centrifuged (3,000 g, 3 min) within 10 min to harvest plasma. Plasma and tissues were rapidly frozen in liquid nitrogen before storage at -80°C for subsequent bioanalysis. Urine samples were collected from mice housed individually in metabolic cages (Minor Metabowl, Jencons, United Kingdom; one animal per cage) with continuous access to food and water."}, "NIH-III mice [4]": {"system": "NIH-III mice", "design": "method as in Gu et al., 2014", "settings": "ref Gu et al., 2014, cited from earlier work; for Survival: 14 days"}, "[5]": {"assay": "Redox cycling: non-respiratory O2 consumption and H2O2 generation", "assay_type": "cell-based", "settings": "Chinese hamster; CHO/POR cells, 600 µM single bolus; read-out: Cell viability by trypan blue at end of exposure", "protocol": "The Chinese hamster ovary cell line 51D1.3 (herein called CHO) and a stable transfectant expressing a soluble form of human P450 oxidoreductase (51D1.3/sPOR, herein called CHO/POR) ([Gu et al., 2009]), were grown in spinner flasks in αMEM plus 5% fetal bovine serum. Late log phase cultures were harvested by centrifugation, resuspended at 5 × 10^5 cells/mL in phenol red-free high-glucose DMEM (Invitrogen) supplemented with 4 mM Glutamax-1, 1 mM sodium pyruvate and 5% FBS. Stirred cell suspensions (2 mL) were transferred to an OXYBOROS O2K oxygraph for simultaneous polarographic measurement of non-respiratory O2 consumption and fluorimetric measurement of H2O2 generation as previously ([Hunter et al., 2012]). Bovine liver superoxide dismutase (10 U), horseradish peroxidase (10 U), Amplex UltraRed (50 nmol) and rotenone (1 nmol), all from Molecular Probes Invitrogen (Eugene, OR), were injected and cumulative drug additions (from saline stock solutions) were made every ∼5 min once endogenous rates had stabilized. Signals were recorded every 2 s, and flux derivatives were estimated ∼2 min after each addition using a Savitzky–Golay smoothing filter (40 data point window) in DATLAB version 4.3.\nSupplementary Figure 4. Time-dependent changes in oxy gen consu mption and H2O2 formation rates induced by SN30000 in rotenone-inhibited CHO/POR cell suspensions, monitored with an OXYBOROS O2K oxygraph. Conditions of the experiment were identical to Fig. 5 except that SN30000 was added as a single bolus to separate cell suspension, rather than by cu mulative addition. A: Representative traces for oxygen consu mption and H2O2 formation rates for a single culture when SN30000 was added to a final concentration of 600 µM, at 4 min. Peak rates were established within 2 min, followed by a decline to a new steady state at approximately 1/3rd of the maximu m rate. Cell viability was > 97% by try pan […]\nkilling. […]"}}, "note": "Where two headings read alike, the source gives them in different places."}
{"smiles": "[O-][n+]1nc(CCCN2CCOCC2)nc2cc3c(cc21)CCC3", "note": "[M14]", "values": [{"measurement": "MTD at 14 days", "setting": "[1]", "result": 562, "unit": "µmol/kg"}, {"measurement": "MTD at 14 days", "setting": "[1]; equivalent to 562 μmol/kg", "result": 177, "unit": "mg/kg"}, {"measurement": "MTD at 2 weeks", "setting": "[1]; as stated for the temperature study (Figure 4)", "result": 135, "unit": "mg/kg"}, {"measurement": "Body weight nadir, Day", "setting": "NIH-III mice [2]; female, 562 µmol/kg i.p.", "result": 3}, {"measurement": "Body weight nadir, Weight loss", "setting": "NIH-III mice [2]; female, 562 µmol/kg i.p.", "result": "2.6 ± 0.4", "unit": "%"}, {"measurement": "Survival", "setting": "NIH-III mice [2]; female, 562 µmol/kg i.p.", "result": "3/3"}, {"measurement": "Survival", "setting": "NIH-III mice [2]; female, 750 µmol/kg i.p.", "result": "0/1"}, {"measurement": "Body weight nadir, Day", "setting": "NIH-III mice [2]; male, 562 µmol/kg i.p.", "result": 1}, {"measurement": "Body weight nadir, Weight loss", "setting": "NIH-III mice [2]; male, 562 µmol/kg i.p.", "result": "0.7 ± 0.5", "unit": "%"}, {"measurement": "Survival", "setting": "NIH-III mice [2]; male, 562 µmol/kg i.p.", "result": "3/3"}, {"measurement": "Survival", "setting": "NIH-III mice [2]; male, 750 µmol/kg i.p.", "result": "0/2"}, {"measurement": "Body weight nadir, Day", "setting": "NIH-III mice [2]; male, 1000 µmol/kg i.p.", "result": 1}, {"measurement": "Body weight nadir, Weight loss", "setting": "NIH-III mice [2]; male, 1000 µmol/kg i.p.", "result": 2.0, "unit": "%"}, {"measurement": "Survival", "setting": "NIH-III mice [2]; male, 1000 µmol/kg i.p.", "result": "1/1"}, {"measurement": "Effect on oxygen consumption rate (OCR)", "setting": "SiHa cells", "result": "suppressed"}]}
{"smiles": "O=C(O)CCc1nc2cc3c(cc2[n+]([O-])n1)CCC3", "note": "[M18]", "values": [{"measurement": "Body weight nadir, Weight loss", "setting": "NIH-III mice [2]; female, 562 µmol/kg i.p.", "result": "No decrease in body weight"}, {"measurement": "Survival", "setting": "NIH-III mice [2]; female, 562 µmol/kg i.p.", "result": "3/3"}]}
{"smiles": "[O-][n+]1nc(CCCN2CCOCC2)[n+]([O-])c2cc3c(cc21)CCC3", "note": "[SN30000, 3-(3-Morpholinopropyl)-7,8-dihydro-6H-indeno[5,6-e][1,2,4]triazine 1,4-dioxide]", "values": [{"measurement": "MTD", "setting": "[3]", "result": 90, "unit": "mg/kg"}, {"measurement": "MTD at 14 days", "setting": "[1]", "result": 562, "unit": "µmol/kg"}, {"measurement": "MTD at 14 days", "setting": "[1]; equivalent to 562 μmol/kg", "result": 186, "unit": "mg/kg"}, {"measurement": "Urinary excretion, % of administered dose", "setting": "Urinary excretion; 18.6 mg/kg i.p.", "result": "3.38 ± 0.03", "unit": "%"}, {"measurement": "Urinary excretion, % of administered dose", "setting": "Urinary excretion; 186 mg/kg i.p.", "result": "5.64 ± 0.02", "unit": "%"}, {"measurement": "Urinary excretion, % of injected dose", "setting": "Urinary excretion; by 24 h, dose not stated", "result": "~5", "unit": "%"}, {"measurement": "Survival", "setting": "NIH-III mice [4]; female, 562 µmol/kg i.p.", "result": "6/6"}, {"measurement": "Body weight nadir, Day", "setting": "NIH-III mice [4]; female, 562 µmol/kg i.p.", "result": 1}, {"measurement": "Body weight nadir, Weight loss", "setting": "NIH-III mice [4]; female, 562 µmol/kg i.p.", "result": "8.4 ± 1.7", "unit": "%"}, {"measurement": "Survival", "setting": "NIH-III mice [4]; female, 750 µmol/kg i.p.", "result": "1/2"}, {"measurement": "Body weight nadir, Day", "setting": "NIH-III mice [4]; female, 750 µmol/kg i.p.", "result": 2}, {"measurement": "Body weight nadir, Weight loss", "setting": "NIH-III mice [4]; female, 750 µmol/kg i.p.", "result": 14.4, "unit": "%"}, {"measurement": "Survival", "setting": "NIH-III mice [4]; female, 1000 µmol/kg i.p.", "result": "0/1"}, {"measurement": "Survival", "setting": "NIH-III mice [4]; male, 562 µmol/kg i.p.", "result": "7/7"}, {"measurement": "Body weight nadir, Day", "setting": "NIH-III mice [4]; male, 562 µmol/kg i.p.", "result": 1}, {"measurement": "Body weight nadir, Weight loss", "setting": "NIH-III mice [4]; male, 562 µmol/kg i.p.", "result": "4.2 ± 1.2", "unit": "%"}, {"measurement": "Survival", "setting": "NIH-III mice [4]; male, 750 µmol/kg i.p.", "result": "2/3"}, {"measurement": "Body weight nadir, Day", "setting": "NIH-III mice [4]; male, 750 µmol/kg i.p.", "result": 1}, {"measurement": "Body weight nadir, Weight loss", "setting": "NIH-III mice [4]; male, 750 µmol/kg i.p.", "result": "12.1 ± 3.8", "unit": "%"}, {"measurement": "Survival", "setting": "NIH-III mice [4]; male, 1000 µmol/kg i.p.", "result": "1/2"}, {"measurement": "Body weight nadir, Day", "setting": "NIH-III mice [4]; male, 1000 µmol/kg i.p.", "result": 1}, {"measurement": "Body weight nadir, Weight loss", "setting": "NIH-III mice [4]; male, 1000 µmol/kg i.p.", "result": 13.3, "unit": "%"}, {"measurement": "Survival", "setting": "NIH-III mice [4]; male, 1333 µmol/kg i.p.", "result": "1/2"}, {"measurement": "Body weight nadir, Day", "setting": "NIH-III mice [4]; male, 1333 µmol/kg i.p.", "result": 1}, {"measurement": "Body weight nadir, Weight loss", "setting": "NIH-III mice [4]; male, 1333 µmol/kg i.p.", "result": 11.6, "unit": "%"}, {"measurement": "viability at 600 µM", "setting": "[5]", "result": "> 97", "unit": "%"}, {"measurement": "Effect on oxygen consumption rate (OCR)", "setting": "SiHa cells", "result": "increased"}]}
